For 5 molecules, IC50 and ED50 results are on record in ChEMBL document CHEMBL1121937, “Stereochemical studies on medicinal agents. 25. Absolute configuration and analgetic potency of beta-1,2-dimethyl-2-phenyl-4-(propionyloxy)piperidine enantiomers” (J Med Chem, 1982).

For assay [1], the target named is Opioid receptors; mu/kappa/delta (Homo sapiens, UniProt P41145+P41143+P35372). In words: Ability to displace [3H]etorphine from Opioid receptors in guinea pig brain. Also on record: species or system Cavia porcellus.
The next assay concerns Mus musculus. In words: Effective dose required for analgesic potency in the hotplate procedure after sc injection into mice. Format: functional.

As for `CCC(=O)O[C@]1(c2ccccc2)CCN(C)[C@@H](C)C1`, the IC50 (in general, the concentration that inhibits the measured activity by half) in assay [1] was determined as 1200 nM. For the same molecule, in the assay on Mus musculus, the ED50 (as a rule, the dose that gives a 50% effect, or the effect in half of the subjects) came to 0.53 mg/kg.

The molecule `CCC(=O)OC1(c2ccccc2)CCN(C)C(C)C1` (racemic) returned an IC50 in assay [1] of 2000 nM. In the assay with Mus musculus, the ED50 is 0.52 mg/kg. In assay [1], `CCC(=O)O[C@@]1(c2ccccc2)CCN(C)C(C)C1` (single isomer, unassigned; (+)) had an IC50 of 11000 nM. The ED50 in the assay on Mus musculus stood at 5.5 mg/kg.

`CCOC(=O)C1(c2ccccc2)CCN(C)CC1` [MEPERIDINE] registered an ED50 in the assay on Mus musculus of 1.3 mg/kg.

Consider `CN1CC[C@]23c4c5ccc(O)c4O[C@H]2[C@@H](O)C=C[C@H]3[C@H]1C5` [MORPHINE], for which the ED50 in the assay with Mus musculus worked out at 1.2 mg/kg.
